Values quoted from earlier work as cited in patent US10993934B2, “Topical compositions of dutasteride” (SHILPA MEDICARE LIMITED, priority 2017, dated 2021).

Key:
[1] = orally administered

Question: Which Solubility in ethanol (ethanol) does the source give for `C[C@]12C=CC(=O)N[C@@H]1CC[C@@H]1[C@@H]2CC[C@]2(C)[C@@H](C(=O)Nc3cc(C(F)(F)F)ccc3C(F)(F)F)CC[C@@H]12` [Dutasteride, (5α,17β)-N-{2,5-bis(trifluoromethyl)phenyl}-3-oxo-4-azaandrost-1-ene-17-carboxamide] here?
Answer: soluble

Question: And the Solubility in methanol (methanol)?
Answer: soluble

Question: And the “Solubility in polyethylene glycol 400” value (polyethylene glycol 400)?
Answer: soluble

Question: And the Solubility in water (water)?
Answer: insoluble

Question: What about the Absolute bioavailability [1] of the same molecule?
Answer: about 60%

Question: And the “Absolute bioavailability (range)” value ([1]; range in brackets)?
Answer: 40%-94%
